≈ marks a conversion by molar mass, not a printed value.
Assays:
Type in all cases: cell-based
[1] = system: STAPHYLOCOCCUS AUREUS NCTC10649M; assay: In vitro antibacterial activity, MIC, BHI agar dilution; settings: S. aureus NCTC10649M, unit assumed
[2] = system: PSEUDOMONAS AERUGINOSA BMH10; assay: as above; settings: P. aeruginosa BMH10, unit assumed
[3] = system: MYCOBACTERIUM SMEGMATIS ATCC 114; assay: as above; settings: M. smegmatis ATCC 114, unit assumed
[4] = system: PSEUDOMONAS AERUGINOSA K799/61; assay: as above; settings: P. aeruginosa K799/61, unit assumed
[5] = system: ACINETOBACTER CALCOACETICUS CMX 669; assay: as above; settings: A. calcoaceticus CMX 669, unit assumed
[6] = system: STAPHYLOCOCCUS AUREUS CMX 553; assay: as above; settings: S. aureus CMX 553, unit assumed
[7] = system: STREPTOCOCCUS PYOGENES EES61; assay: as above; settings: S. pyogenes EES61, unit assumed
[8] = system: KLEBSIELLA PNEUMONIAE ATCC 8045; assay: as above; settings: K. pneumoniae ATCC 8045, unit assumed
[9] = system: STAPHYLOCOCCUS AUREUS CMX 642A; assay: as above; settings: S. aureus CMX 642A, unit assumed
[10] = system: STREPTOCOCCUS BOVIS A-5169; assay: as above; settings: S. bovis A-5169, unit assumed
[11] = system: PROVIDENCIA STUARTII CMX 640; settings: P. stuartii CMX 640; BHI agar; unit assumed
ESCHERICHIA COLI KNK 437 = settings: E. coli KNK 437; BHI agar; unit assumed
[12] = system: STREPTOCOCCUS PYOGENES 930; assay: In vitro antibacterial activity, MIC, BHI agar dilution; settings: S. pyogenes 930, unit assumed
[13] = system: STREPTOCOCCUS PYOGENES PIU 2548; assay: as above; settings: S. pyogenes PIU 2548, unit assumed
[14] = system: PSEUDOMONAS AERUGINOSA K799/WT; assay: as above; settings: P. aeruginosa K799/WT, unit assumed
[15] = system: STAPHYLOCOCCUS AUREUS A5177; assay: as above; settings: S. aureus A5177, unit assumed
ESCHERICHIA COLI H560 = assay: as above; settings: E. coli H560, unit assumed
ESCHERICHIA COLI JUHL = settings: E. coli JUHL; BHI agar; unit assumed
[16] = system: PSEUDOMONAS AERUGINOSA DPHD-2862; assay: In vitro antibacterial activity, MIC, BHI agar dilution; settings: P. aeruginosa DPHD-2862, unit assumed
[17] = system: STAPHYLOCOCCUS EPIDERMIDIS 3519; settings: S. epidermidis 3519; BHI agar; unit assumed
[18] = system: PSEUDOMONAS AERUGINOSA DPHD-5263; assay: In vitro antibacterial activity, MIC, BHI agar dilution; settings: P. aeruginosa DPHD-5263, unit assumed
[19] = system: ENTEROBACTER AEROGENES ATCC 13048; assay: as above; settings: E. aerogenes ATCC 13048, unit assumed
ESCHERICHIA COLI SS = assay: as above; settings: E. coli SS, unit assumed
ESCHERICHIA COLI DC-2 = assay: as above; settings: E. coli DC-2, unit assumed
CANDIDA ALBICANS CCH 442 = assay: as above; settings: C. albicans CCH 442, unit assumed
[20] = system: STAPHYLOCOCCUS AUREUS A-5278; assay: as above; settings: S. aureus A-5278, unit assumed
EN[…] ATCC 8043 = assay: as above; settings: E. faecium ATCC 8043, unit assumed
Method in brief: (§1)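 MIC was read visually as the lowest drug concentration showing no growth, a slight haze or sparsely isolated colonies relative to a compound-free BHI plate. Plates held serial aqueous dilutions in BHI agar, were spot-inoculated with 1:100 (or 1:10) culture dilutions and incubated 20 to 24 hours at 35-37° C.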

M[…] ATCC 4698 = assay: as above; settings: M. luteus ATCC 4698, unit assumed
Method in brief: as §1

M[…] ATCC 9341 = assay: as above; settings: M. luteus ATCC 9341, unit assumed
Method in brief: as §1

STR[…] 508 = assay: as above; settings: S. agalactiae CMX 508, unit assumed
Method in brief: as §1

PSEUDOMONAS CEPACIA 296I = assay: as above; settings: P. cepacia 296I, unit assumed
[21] = system: STAPHYLOCOCCUS AUREUS 1775; assay: as above; settings: S. aureus 1775, unit assumed
[22] = system: STAPHYLOCOCCUS AUREUS ATCC 6538P; assay: as above; settings: S. aureus ATCC 6538P, 35-37° C., 20 to 24 hours, unit assumed
[23] = system: PSEUDOMONAS AERUGINOSA 5007; assay: as above; settings: P. aeruginosa 5007, unit assumed

`CC[C@H]1OC(=O)[C@H](C)C(=O)[C@H](C)[C@@H](O[C@@H]2O[C@H](C)C[C@H](N(C)C)[C@H]2O)[C@](C)(OC)C[C@@H](C)C2=N[C@H](COCc3ccc(F)cc3)CN3C(=O)O[C@@]1(C)[C@H]3[C@H]2C` [Example 101] was tested, and the MIC [1] was 0.05 µg/mL (≈ 0.0644 µM), the MIC [2] was > 100 µg/mL and the MIC [3] was 0.39 µg/mL (≈ 0.503 µM). It also gave an MIC [4] of 1.56 µg/mL (≈ 2.01 µM), an MIC [5] of 100 µg/mL (≈ 129 µM) and an MIC [6] of 0.05 µg/mL (≈ 0.0644 µM). The MIC [7] was ≤ 5 ng/mL, the MIC [8] was > 100 µg/mL and the MIC [9] was 0.1 µg/mL (≈ 0.129 µM). For the same molecule, the MIC [10] was ≤ 5 ng/mL, the MIC [11] was > 100 µg/mL and the MIC (ESCHERICHIA COLI KNK 437) was > 100 µg/mL. The MIC [12] was > 100 µg/mL, the MIC [13] was 0.05 µg/mL (≈ 0.0644 µM) and the MIC [14] was > 100 µg/mL. The MIC [15] was 0.05 µg/mL (≈ 0.0644 µM), the MIC (ESCHERICHIA COLI H560) was 100 µg/mL (≈ 129 µM) and the MIC (ESCHERICHIA COLI JUHL) was > 100 µg/mL. For the same molecule, the MIC [16] was > 100 µg/mL, the MIC [17] was 0.1 µg/mL (≈ 0.129 µM) and the MIC [18] was > 100 µg/mL. The MIC [19] was > 100 µg/mL, the MIC (ESCHERICHIA COLI SS) was 0.2 µg/mL (≈ 0.258 µM) and the MIC (ESCHERICHIA COLI DC-2) was > 100 µg/mL. The MIC (CANDIDA ALBICANS CCH 442) was > 100 µg/mL, the MIC [20] was > 100 µg/mL and the MIC (EN[…] ATCC 8043) was ≤ 5 ng/mL. The MIC (M[…] ATCC 4698) was 0.02 µg/mL (≈ 0.0258 µM), the MIC (M[…] ATCC 9341) was ≤ 0.005 µg/mL and the MIC (STR[…] 508) was ≤ 5 ng/mL. For the same molecule, the MIC (PSEUDOMONAS CEPACIA 296I) was 100 µg/mL (≈ 129 µM), the MIC [21] was > 100 µg/mL and the MIC [22] was 0.05 µg/mL (≈ 0.0644 µM). The MIC [23] was > 100 µg/mL.

For `CC[C@H]1OC(=O)[C@H](C)C(=O)[C@H](C)[C@@H](O[C@@H]2O[C@H](C)C[C@H](N(C)C)[C@H]2O)[C@](C)(OC)C[C@@H](C)C2=N[C@H](COCc3ccccc3Br)CN3C(=O)O[C@@]1(C)[C@H]3[C@H]2C` [Example 104], the MIC [1] was 0.05 µg/mL (≈ 0.0597 µM), the MIC [2] was > 100 µg/mL and the MIC [3] was 0.39 µg/mL (≈ 0.466 µM). For the same molecule, the MIC [4] was 3.1 µg/mL (≈ 3.7 µM), the MIC [5] was 100 µg/mL (≈ 119 µM) and the MIC [6] was 0.05 µg/mL (≈ 0.0597 µM). The MIC [7] was 10 ng/mL (≈ 0.0119 µM), the MIC [8] was > 100 µg/mL and the MIC [9] was 0.05 µg/mL (≈ 0.0597 µM). The MIC [10] was 10 ng/mL (≈ 0.0119 µM), the MIC [11] was > 100 µg/mL and the MIC (ESCHERICHIA COLI KNK 437) was > 100 µg/mL. For the same molecule, the MIC [12] was 25 µg/mL (≈ 29.9 µM), the MIC [13] was 0.05 µg/mL (≈ 0.0597 µM) and the MIC [14] was > 100 µg/mL. The MIC [15] was 0.05 µg/mL (≈ 0.0597 µM), the MIC (ESCHERICHIA COLI H560) was 50 µg/mL (≈ 59.7 µM) and the MIC (ESCHERICHIA COLI JUHL) was 100 µg/mL (≈ 119 µM). For the same molecule, the MIC [16] was > 100 µg/mL, the MIC [17] was 0.05 µg/mL (≈ 0.0597 µM) and the MIC [18] was > 100 µg/mL. The MIC [19] was > 100 µg/mL, the MIC (ESCHERICHIA COLI SS) was 0.78 µg/mL (≈ 0.932 µM) and the MIC (ESCHERICHIA COLI DC-2) was 100 µg/mL (≈ 119 µM). The MIC (CANDIDA ALBICANS CCH 442) was 100 µg/mL (≈ 119 µM), the MIC [20] was 100 µg/mL (≈ 119 µM) and the MIC (EN[…] ATCC 8043) was 10 ng/mL (≈ 0.0119 µM). The MIC (M[…] ATCC 4698) was 0.1 µg/mL (≈ 0.119 µM), the MIC (M[…] ATCC 9341) was 0.02 µg/mL (≈ 0.0239 µM) and the MIC (STR[…] 508) was 10 ng/mL (≈ 0.0119 µM). It also gave an MIC (PSEUDOMONAS CEPACIA 296I) of 100 µg/mL (≈ 119 µM), an MIC [21] of 100 µg/mL (≈ 119 µM) and an MIC [22] of 0.05 µg/mL (≈ 0.0597 µM). The MIC [23] was > 100 µg/mL.

In the case of `CC[C@H]1OC(=O)[C@H](C)C(=O)[C@H](C)[C@@H](O[C@@H]2O[C@H](C)C[C@H](N(C)C)[C@H]2O)[C@](C)(OC)C[C@@H](C)C2=N[C@H](COCc3cccc(Br)c3)CN3C(=O)O[C@@]1(C)[C@H]3[C@H]2C` [Example 105], the MIC [1] is reported as 0.02 µg/mL (≈ 0.0239 µM), the MIC [2] is reported as > 100 µg/mL and the MIC [3] is reported as 0.78 µg/mL (≈ 0.932 µM). It also gave an MIC [4] of 1.56 µg/mL (≈ 1.86 µM), an MIC [5] of 100 µg/mL (≈ 119 µM) and an MIC [6] of 0.05 µg/mL (≈ 0.0597 µM). For the same molecule, the MIC [7] was ≤ 5 ng/mL, the MIC [8] was > 100 µg/mL and the MIC [9] was 0.05 µg/mL (≈ 0.0597 µM). The MIC [10] was ≤ 5 ng/mL, the MIC [11] was > 100 µg/mL and the MIC (ESCHERICHIA COLI KNK 437) was > 100 µg/mL. The MIC [12] was 25 µg/mL (≈ 29.9 µM), the MIC [13] was 0.05 µg/mL (≈ 0.0597 µM) and the MIC [14] was > 100 µg/mL. The MIC [15] was 0.05 µg/mL (≈ 0.0597 µM), the MIC (ESCHERICHIA COLI H560) was 50 µg/mL (≈ 59.7 µM) and the MIC (ESCHERICHIA COLI JUHL) was 100 µg/mL (≈ 119 µM). The MIC [16] was > 100 µg/mL, the MIC [17] was 0.05 µg/mL (≈ 0.0597 µM) and the MIC [18] was > 100 µg/mL. The MIC [19] was > 100 µg/mL, the MIC (ESCHERICHIA COLI SS) was 0.39 µg/mL (≈ 0.466 µM) and the MIC (ESCHERICHIA COLI DC-2) was 100 µg/mL (≈ 119 µM). For the same molecule, the MIC (CANDIDA ALBICANS CCH 442) was 100 µg/mL (≈ 119 µM), the MIC [20] was 100 µg/mL (≈ 119 µM) and the MIC (EN[…] ATCC 8043) was ≤ 5 ng/mL. The MIC (M[…] ATCC 4698) was 0.01 µg/mL (≈ 0.0119 µM), the MIC (M[…] ATCC 9341) was ≤ 0.005 µg/mL and the MIC (STR[…] 508) was ≤ 5 ng/mL. The MIC (PSEUDOMONAS CEPACIA 296I) was 100 µg/mL (≈ 119 µM), the MIC [21] was 100 µg/mL (≈ 119 µM) and the MIC [22] was 0.05 µg/mL (≈ 0.0597 µM). The MIC [23] was > 100 µg/mL.

From patent publication US6274715A, “Tricyclic erythromycin derivatives” (priority 1997, dated 2001)
